Reference: PubChem BioAssay (NCI)
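Exposure lasted 48 hours, with cells grown in 96-well plates and compounds tested at five concentrations. At the TGI there is no net growth.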

How the values were obtained:
Experiment in all cases: NCI tumour cell line growth inhibition, 48 h
[1] = tested on: CAKI-1 renal
[2] = tested on: HCC-2998 colon
[3] = tested on: K-562 leukemia
[4] = tested on: NCI-H522 lung
[5] = tested on: RXF 393 renal
[6] = tested on: SF-295 CNS
[7] = tested on: SF-539 CNS
[8] = tested on: SK-MEL-28 melanoma
[9] = tested on: T-47D breast
[10] = tested on: A498 renal

SMILES | TGI [1] [µM] | TGI [2] [µM] | TGI [3] [µM] | TGI [4] [µM] | TGI [5] [µM] | TGI [6] [µM] | TGI [7] [µM] | TGI [8] [µM] | TGI [9] [µM] | TGI [10] [µM]
CN(CCNC(=S)c1cn(C)c2c1ccc1ccccc12)CCNC(=S)c1cn(C)c2c1ccc1ccccc12 | > 100 | > 100 | > 100 | > 100 | 7.47 | > 100 | > 100 | > 100 | 28.6 | –
COC(=O)c1ccc(C=C(C#N)C#N)cc1 | 74.7 | 32.9 | 62.8 | 30.1 | – | 91.6 | 39.8 | 39.9 | – | > 100
NC(=O)c1sc2nc3ccccc3n2c1N | > 100 | > 100 | – | – | 74.8 | 50.8 | 45.9 | > 100 | > 100 | > 100
CC(C)=CCC/C(C)=C/CCC1(C)C=Cc2c(c3ccccc3oc2=O)O1 (stereo not given) | 33 | 31.8 | > 89 | 29.3 | 27.8 | 33.9 | 30.5 | 29.9 | – | 27.1
COc1cc(C(=O)O)c(-c2cc3c(cc2C=O)OCO3)c(OC)c1OC | > 10 | > 10 | > 10 | > 10 | – | > 10 | > 10 | > 10 | > 10 | –
CCC(C)N1CN(c2ccccc2)C2(CCN(CCCSc3ccc(F)cc3)CC2)C1=O (stereo not given) | 11 | 4.22 | 6.26 | 18.9 | – | 5.57 | 6.32 | 23.8 | 10.2 | –
CCN1C[C@]2(C)CC[C@H](OC)C34C5C[C@@H]6[C@@H](OC)C[C@@](OC)(C5[C@H]6OCc5ccccc5)C(C13)[C@H](OC(C)=O)[C@@H]42 (stereo not given in full) | – | – | > 100 | – | > 100 | > 100 | > 100 | > 100 | > 100 | > 100
O=C1/C(=C/c2cccs2)NC(=S)N1CN1CCCCC1 | – | – | > 100 | > 100 | – | > 100 | – | > 100 | – | > 100
CN(C)C(F)=PC(F)(F)F (stereo not given) | > 100 | > 100 | > 100 | > 100 | > 100 | > 100 | > 100 | > 100 | – | > 100
CC1CC(N2CCOCC2)=Nc2ccccc2N1Cc1ccccc1 (stereo not given) | > 100 | – | > 100 | > 100 | 63.4 | > 100 | – | > 100 | – | 52.3
O=C(Nc1ccc2[nH]c(C(=O)N3CC(CCl)c4ccc([N+](=O)[O-])cc43)cc2c1)c1cc2ccccc2o1 (stereo not given) | > 1100 | > 1100 | – | > 1100 | > 1100 | > 1100 | > 1100 | > 1100 | > 1100 | > 1100
COc1cc(-c2cc(=O)c3ccccc3[nH]2)cc(OC)c1OC | – | > 75 | > 75 | > 75 | > 75 | > 75 | > 75 | > 75 | – | –
CSC(=N)N1N=C2/C(=C/c3ccccc3)CCC[C@H]2[C@H]1c1ccccc1 | – | 10.4 | 6.09 | 17.2 | 9.85 | 16.9 | 19.5 | 12 | – | 18.4
Cc1cccc(CNc2ncnc3[nH]ncc23)c1 | > 100 | – | > 100 | > 100 | > 100 | > 100 | > 100 | > 100 | > 100 | > 100
CC(C)N(C(=O)C12C3C4C1C1C2C3C41C(=O)N(C(C)C)C(C)C)C(C)C (stereo not given) | > 50 | > 50 | > 50 | > 50 | – | > 50 | > 50 | > 50 | – | > 50
Cc1c(C2=NN=C(N=Nc3c(O)cccc3O)/C2=C/c2ccccc2)c(=O)n(-c2ccccc2)n1C | > 100 | > 100 | > 100 | > 100 | > 100 | > 100 | > 100 | > 100 | – | > 100
O=c1n(-c2ccccc2)c(=O)n2c(-c3ccccc3)c(-c3ccccc3)n12 | > 100 | > 100 | > 100 | – | > 100 | > 100 | > 100 | > 100 | – | > 100
C=C(CCC=C(C)C)C1CC=C(C)CC1 (stereo not given) | 42.2 | – | – | 32.3 | 31.6 | 45 | 68.2 | – | > 100 | > 100
C/C(N=NS(=O)(=O)c1ccc(C)cc1)=C1\C=CC=CN1O | > 100 | > 100 | – | > 100 | – | > 100 | > 100 | > 100 | – | > 100
NC(CCCCNCc1ccccc1O)C(=O)O (stereo not given) | > 100 | > 100 | > 100 | > 100 | – | > 100 | > 100 | > 100 | – | > 100
CNC(=O)N1N[C@H](c2ccccc2)[C@@H]1c1ccccc1 | > 100 | 68.8 | 54.5 | – | 36.6 | 41.2 | 33.3 | 40.7 | – | 55.4
CSc1ccc2c(cc1=O)C(NC(=O)c1ccc(C#N)cc1)CCc1cc(O)c(O)c(O)c1-2 (stereo not given) | – | 81.6 | 25.1 | 40.3 | – | 74.7 | 36.1 | > 100 | – | > 100
C[C@@]1(OC(=O)c2cc([N+](=O)[O-])cc([N+](=O)[O-])c2)C[C@@H]2CCCC[C@@H]21 | > 100 | > 100 | > 100 | > 100 | – | > 100 | > 100 | > 100 | > 100 | –
C=C[C@]1(O[Si](C)(C)C)C[C@@]2(C(=O)OCC)C(O)C(=O)N3CCc4cc(OC)c(OC)cc4[C@]312 (stereo not given in full) | > 100 | – | > 100 | – | > 100 | > 100 | > 100 | > 100 | > 100 | > 100
S=C(N/N=C/c1ccccn1)N1CCCCCC1 | – | > 38.1 | > 100 | 5.9 | 5.01 | > 100 | 0.305 | > 100 | – | 0.735

SMILES | TGI [1] [µM] | TGI [2] [µM] | TGI [3] [µM] | TGI [4] [µM] | TGI [5] [µM] | TGI [6] [µM] | TGI [7] [µM] | TGI [8] [µM] | TGI [9] [µM] | TGI [10] [µM]
BrCc1ccc(CBr)c2c1-c1c(CBr)ccc3ccc(CBr)c-2c13 | – | > 100 | > 100 | > 100 | – | > 100 | > 100 | > 100 | > 100 | > 100
C[C@H](NC(=O)CNC(=O)CCCCCC(=O)NCC(=O)N[C@@H](C)C(=O)OCc1ccccc1)C(=O)OCc1ccccc1 | > 100 | > 100 | > 100 | – | > 100 | > 100 | > 100 | > 100 | > 100 | –
CCOC(=O)/C=C/C1(CCOC(C)=O)CCCCC1 | > 10 | > 10 | > 10 | > 10 | > 10 | > 10 | > 10 | > 10 | > 10 | –
CCc1ccccc1NC(=O)CC1NC(=O)CS1 (stereo not given) | > 100 | > 100 | > 100 | > 100 | > 100 | > 100 | > 100 | > 100 | – | > 100
O/N=C1/CCCc2nonc21 | > 100 | > 100 | > 100 | – | > 100 | > 100 | > 100 | > 100 | > 100 | –
Nc1nc2ncn(CC(O)CO)c2c(=O)[nH]1 (stereo not given) | > 100 | – | > 100 | > 100 | > 100 | > 100 | > 100 | > 100 | – | > 100
O=c1ccn(/C=C/C(O)C(O)CO)c(=O)[nH]1 (stereo not given) | > 100 | > 100 | > 100 | > 100 | – | > 100 | > 100 | > 100 | – | > 100
C/C(=N\NC(=S)Nc1ccc([N+](=O)[O-])cc1)c1nc2ncccc2[nH]1 | > 100 | 10.8 | > 100 | 3.25 | – | 10.2 | 1.37 | 3.2 | 22.9 | 8.76
O=C(/C=C(\Nc1ccccc1O)c1ccc(Br)cc1)C(Cl)(Cl)Cl | 20.7 | 5.88 | 32.5 | 30.2 | 19.2 | 20 | 27.1 | 24.6 | 20.2 | –
Cc1ccc(S(=O)(=O)N2CC(CCN)c3ccccc32)cc1 (stereo not given) | 23.8 | 30.3 | > 60.8 | 14.6 | 12.6 | 33.5 | 8.59 | 34.7 | – | 40.6
CC(=O)N(CC(=O)C(=O)NNc1ccoc1)c1ccc(Cl)cc1 | > 100 | > 100 | > 100 | > 100 | > 100 | > 100 | > 100 | > 100 | > 100 | –
O=C(N/N=C(\C1=Nc2ccc(Cl)cc2NC1O)C(O)/C=C/c1ccccc1)c1ccncc1 (stereo not given) | > 100 | > 100 | > 100 | > 100 | > 100 | > 100 | > 100 | > 100 | – | –
CNC(=O)CCCNC(=O)CCCC(=O)OC | > 100 | > 100 | > 100 | > 100 | – | > 100 | > 100 | > 100 | > 100 | > 100
COC(=O)CCC(NC(=S)N/N=C(\C)c1cnccn1)C(=O)OC (stereo not given) | – | > 100 | > 100 | 84 | > 100 | > 100 | > 100 | > 100 | – | > 100
Cc1ccc(/N=N/C(=NNC(=O)c2ccc(C)cc2)c2ccc(N(C)C)cc2)cc1 | 48.8 | 73.2 | > 100 | 49.9 | – | 76.1 | > 100 | > 100 | > 100 | –
Oc1cccnc1/C=N/OCc1ccccc1 | > 100 | > 100 | > 100 | > 100 | 72.8 | > 100 | > 100 | – | – | > 100
O=C(O)Cc1cccc2c(=O)c3cccc([N+](=O)[O-])c3[nH]c12 | > 100 | > 100 | > 100 | > 100 | – | > 100 | 78.1 | – | > 100 | > 100
Nc1c(Cl)cc(-c2nc3ccccc3s2)cc1Cl | – | > 100 | > 100 | > 100 | > 100 | > 100 | > 100 | > 100 | > 100 | –
COCCOCOC(C)(C)[C@H](CCO)O[Si](c1ccccc1)(c1ccccc1)C(C)(C)C | – | 18.9 | – | 15.4 | 17.8 | 18.6 | 27.4 | 29.7 | – | 31.6
Cc1ccc(S(=O)(=O)NC(=O)Nc2cc(Cl)c(S(N)(=O)=O)cc2S(N)(=O)=O)cc1 | > 100 | – | > 100 | > 100 | > 100 | > 100 | > 100 | > 100 | – | –
Nc1ccc(-c2nc3ccc(F)cc3s2)cc1I | > 100 | > 100 | > 100 | > 100 | > 67.9 | > 100 | > 100 | > 100 | – | > 100
O=C1CSC(c2ccccc2O)N1c1ccc(Oc2ccc(Cl)cc2)c(Cl)c1 (stereo not given) | 74 | 40.4 | > 100 | 36.8 | – | 34.5 | 32.9 | 57.4 | 46.8 | –
CS(=O)(=O)C1(Br)S(=O)(=O)OCCOS1(=O)=O | – | > 100 | > 100 | > 100 | > 100 | > 100 | > 100 | > 100 | – | > 100
O=C(Nc1nc2ncn(CCO)c2c(=O)[nH]1)c1ccccc1 | > 100 | – | > 100 | > 100 | > 100 | > 100 | > 100 | > 100 | – | > 100
